Measured values published in US12052991B2, “Substituted pyridinyloxybenzenes and salts thereof and use thereof as herbicidal agents” (Bayer Aktiengesellschaft, priority 2018, dated 2024).

What was measured:
Format in all cases: in vivo
[1] = system: Alopecurus myosuroides (ALOMY); assay: Herbicidal pre-emergence action, test D, single sowings (Table D1); conditions: 80 g/ha; scored visually after about 3 weeks; 100% = plants have died, 0% = like control plants
Source text: (§1) Seeds of monocotyledonous and dicotyledonous weed plants were laid out in plastic or organic plant pots (single sowings with one species of mono- or dicotyledonous weed plant per pot) and covered with soil. The compounds of the invention, formulated in the form of wettable powders (WP) or as emulsion concentrates (EC), were then applied to the surface of the covering soil as aqueous suspension or emulsion with addition of 0.5% additive at a water application rate equivalent to 600 l/ha (converted). After the treatment, the pots were placed in a greenhouse and kept under good growth conditions for the test plants. After about 3 weeks, the effect of the preparations was scored visually in comparison with untreated controls as percentages. For example, 100% activity=the plants have died, 0% activity=like control plants. Tables D1 to D8 below show the effects of selected compounds of the general formula (I) according to Table 1 on various harmful plants and an application rate corresponding to 80 g/ha, which were obtained by the experimental procedure mentioned above.

[2] = system: corn (ZEAMX, var. Aventura); assay: Pre-emergence crop plant compatibility (Table E1); conditions: dosage 80 g/ha, scored after about 3 weeks, 0% = like control plants
Source text: as §1, with “crop” for “weed”, “placed” for “laid out”, “pots” for “pots (single sowings with one species of mono- or dicotyledonous weed plant per pot)”, “plants.” for “plants. Tables D1 to D8 below show the effects of selected compounds of the general formula (I) according to Table 1 on various harmful plants and an application rate corresponding to 80 g/ha, which were obtained by the experimental procedure mentioned above.”

[3] = system: soybean (GLXMA, var. Sultana); assay: Pre-emergence crop plant compatibility (Table E1); conditions: dosage 80 g/ha, scored after about 3 weeks, 0% = like control plants
Source text: as §1, with “crop” for “weed”, “placed” for “laid out”, “pots” for “pots (single sowings with one species of mono- or dicotyledonous weed plant per pot)”, “plants.” for “plants. Tables D1 to D8 below show the effects of selected compounds of the general formula (I) according to Table 1 on various harmful plants and an application rate corresponding to 80 g/ha, which were obtained by the experimental procedure mentioned above.”

[4] = system: wheat (TRZAS, var. Triso); assay: Pre-emergence crop plant compatibility (Table E1); conditions: dosage 80 g/ha, scored after about 3 weeks, 0% = like control plants
Source text: as §1, with “crop” for “weed”, “placed” for “laid out”, “pots” for “pots (single sowings with one species of mono- or dicotyledonous weed plant per pot)”, “plants.” for “plants. Tables D1 to D8 below show the effects of selected compounds of the general formula (I) according to Table 1 on various harmful plants and an application rate corresponding to 80 g/ha, which were obtained by the experimental procedure mentioned above.”

[5] = system: soybean (GLXMA, var. Sultana), wheat (TRZAS, var. Triso) and corn (ZEAMX, var. Aventura); assay: Pre-emergence crop plant compatibility, summary of Table E1; conditions: applied pre-emergence to soybean, wheat and corn at 80 g of active ingredient per hectare; summary in words
Source text: as §1, with “crop” for “weed”, “placed” for “laid out”, “pots” for “pots (single sowings with one species of mono- or dicotyledonous weed plant per pot)”, “plants.” for “plants. Tables D1 to D8 below show the effects of selected compounds of the general formula (I) according to Table 1 on various harmful plants and an application rate corresponding to 80 g/ha, which were obtained by the experimental procedure mentioned above.”

Bassia scoparia (KCHSC) [6] = assay: Herbicidal post-emergence action (Table B11); conditions: visual rating about 3 weeks after treatment, 100% = plants have died, 0% = like control plants
In short: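 Post-emergence spray, one-leaf stage (2–3 wk after sowing), sandy loam, greenhouse. WP/EC in water + 0.5% additive, 600 L/ha, 1280 or 320 g/ha. Visual % activity vs untreated after ~3 wk (0% = like control, 100% = plants dead).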

Bassia scoparia (KCHSC) [7] = assay: Herbicidal pre-emergence action, test C (Table C11); conditions: visual scoring vs untreated controls
In short: (§2)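 Greenhouse pre-emergence test: compound formulations (WP or EC) are applied at 1280 or 320 g/ha to the soil surface over sown weed seeds, with 0.5% additive in 600 L/ha water. After about 3 weeks, percent activity is assessed visually, 100% indicating dead plants.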

Veronica persica (VERPE) = assay: Herbicidal pre-emergence action, test C (Table C12); conditions: visual scoring vs untreated controls
In short: as §2

Row | Compound | Pre-emergence action against Alopecurus myosuroides (ALOMY) [1] [%] | Crop plant compatibility in pre-emergence, ZEAMX (damage to corn) [2] [%] | Crop plant compatibility in pre-emergence, GLXMA (damage to soybean) [3] [%] | Crop plant compatibility in pre-emergence, TRZAS (damage to wheat) [4] [%] | crop plant tolerance in comparison with structurally similar pyrimidinyloxybenzenes (US 2016/333000 Ex. Nos. 53 and 144) [5] | Post-emergence action against Bassia scoparia (KCHSC) (Bassia scoparia (KCHSC) [6]; dosage 320 g/ha) [%] | Post-emergence action against Bassia scoparia (KCHSC) (Bassia scoparia (KCHSC) [6]; dosage 1280 g/ha) [%] | Pre-emergence action against Bassia scoparia (KCHSC) (Bassia scoparia (KCHSC) [7]; dosage 1280 g/ha) [%] | Pre-emergence action against Veronica persica (VERPE) (Veronica persica (VERPE); dosage 320 g/ha) [%] | Pre-emergence action against Veronica persica (VERPE) (Veronica persica (VERPE); dosage 1280 g/ha) [%] | Pre-emergence action against Bassia scoparia (KCHSC) (Bassia scoparia (KCHSC) [7]; dosage 320 g/ha) [%]
1 | Fc1cccc(Oc2ccc(Cl)cn2)c1-c1cc(C(F)F)no1 [Example 1-17] | 100 | 0 | 20 | 20 | significantly improved crop plant tolerance | – | – | – | – | – | –
2 | Cc1cccc(Oc2ccc(Cl)cn2)c1-c1cc(C(F)F)no1 [Example 1-18, 5-[2-[(5-Chloro-2-pyridyl)oxy]-6-methylphenyl]-3-(difluoromethyl)isoxazole] | – | – | – | – | – | 100 | 100 | 90 | 100 | 100 | –
3 | Fc1cc(Cl)cnc1Oc1cccc(F)c1-c1cc(C(F)F)no1 [Example 1-19] | 100 | 10 | 20 | 30 | significantly improved crop plant tolerance | – | – | – | – | – | –
4 | Cc1cccc(Oc2ncc(Cl)cc2F)c1-c1cc(C(F)F)no1 [Example 1-20] | – | – | – | – | – | 100 | 100 | 90 | 100 | 100 | –
5 | FC(F)c1cc(-c2ccccc2Oc2ccc(Cl)cn2)on1 [Example 1-35] | – | 10 | 20 | 0 | significantly improved crop plant tolerance | 100 | 100 | 90 | 100 | 100 | –
6 | Fc1cc(Cl)cnc1Oc1ccccc1-c1cc(C(F)F)no1 [Example 1-36] | – | 20 | 10 | 0 | significantly improved crop plant tolerance | 100 | 100 | 90 | 100 | 100 | –
7 | Fc1cccc(Oc2ccc(Br)cn2)c1-c1cc(C(F)F)no1 [Example 1-40] | – | – | – | – | – | 100 | 100 | 100 | 100 | 100 | 100
